According to patent US20080287445A1, “Prokineticin 2 receptor antagonists” (priority 2005, published 2008):
Where “and” joins values, the source holds several entries; their conditions need not be identical. Identical values can stand only once.

Target: T1, GPR73 (prokineticin 1 receptor) (Homo sapiens, UniProt Q8TCW9)
T1 construct: expressed in transfected cells; host or cells: HEK 293
Assay: PK1 functional assay: Ca2+ mobilization screening for PK1 antagonists on the FLIPR
Type: cell-based
Settings: HEK 293 GPR73 cells, multiple values = multiple testing; for inhibition at 10 µM: HEK293, 10 μM compound, read-out: Ca^2+ Mobilization % Inh @ 10 μM; for IC50: PK1 ligand preparation at its EC50, read-out: Ca^2+ Mobilization IC50; for Ca^2+ Mobilization % Inh @ 10 μM: 10 μM compound
Experimental: At a time of 24 h prior to running the assay, in cell culture media (DMEM containing high Glucose and L-glutamine, 10% FBS, 1% Pen/Streptomycin, 1% Sodium Pyruvate, 20 mM HEPES, Zeocin 200 mg/L), 100 μL of 1.3*10^6/ml HEK 293 GPR73 (prokineticin 1 receptor) expressing cells were plated in a 96 well poly-d-lysine coated plate (Costar), and incubated at 37 C and 5% CO2. On the day in which the assay was run, the media was removed and 200 μL of 5× Calcium Plus Dye (Molecular Devices) which was previously resuspended with 200 mL of assay buffer [HBSS w/Ca^2+ and Mg^2+ w/o phenol red, 20 mM HEPES, 0.1% BSA, 10 mL probenecid (710 mg probenecid in 5 mL of 1N NaOH, to which was then added 5 mL HBSS containing 20 mM HEPES)] was added to each well of the 96-well plate. The plate was incubated at 37 C and 5% CO2 for 30 min in dark. The plate was removed and allowed to reach RT for 15 min in the dark. The assay was then run on the FLIPR. In Brief: base line read for 1 min, compound added (25 μL) and incubated for 4 min, 15 seconds, PK1 ligand preparation added (25 μL) for a final concentration of a previously determined EC50 and fluorescence was counted for 1 min, 45 seconds. Baseline is described as the amount of relative fluorescence read when buffer alone is added to cells. Baseline was subtracted from all wells. Percent of control was calculated as follows:
(Baseline subtracted well value is divided by baseline subtracted max value)*100. Percent inhibition is 100 minus the percent of control value.
The IC50 is defined as the amount of a given compound required to inhibit 50% of the maximum signal that is generated by the concentration of PK1 preparation used in our assay. IC50 values were calculated using GraphPad Prism.

T1 sequence (Q8TCW9 whole entry, species assumed): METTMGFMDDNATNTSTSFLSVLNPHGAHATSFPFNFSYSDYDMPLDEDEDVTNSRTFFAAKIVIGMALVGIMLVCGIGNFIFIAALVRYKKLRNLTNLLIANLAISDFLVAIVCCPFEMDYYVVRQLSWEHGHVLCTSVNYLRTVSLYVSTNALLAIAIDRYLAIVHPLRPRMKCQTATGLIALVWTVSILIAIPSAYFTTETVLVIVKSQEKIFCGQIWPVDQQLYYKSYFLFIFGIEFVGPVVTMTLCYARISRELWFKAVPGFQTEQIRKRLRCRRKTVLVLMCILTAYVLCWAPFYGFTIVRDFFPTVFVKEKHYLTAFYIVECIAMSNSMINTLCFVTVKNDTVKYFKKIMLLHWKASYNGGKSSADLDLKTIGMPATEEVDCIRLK

SMILES: COCCNc1ncccc1CNc1nc(=O)n(CCc2ccc([N+](=O)[O-])cc2)c(=O)n1Cc1ccc(OC)cc1 [Cpd 74]
- inhibition at 10 µM: 54%
- IC50: 7460 nM

SMILES: COc1ccc(Cn2c(=O)nc(NCc3cccnc3N)n(Cc3ccc(SC)cc3)c2=O)cc1 [Cpd 75]
- inhibition at 10 µM: 99%
- IC50: 131 nM

SMILES: COc1ccc(Cn2c(=O)nc(NCc3cccnc3N)n(Cc3ccncc3)c2=O)cc1 [Cpd 76]
- inhibition at 10 µM: 67%
- IC50: 1460 nM

SMILES: COc1ccc(Cn2c(=O)nc(NCc3cccnc3N)n(Cc3cc4ccccc4o3)c2=O)cc1 [Cpd 77]
- inhibition at 10 µM: 91%
- IC50: 449 nM

SMILES: COCCCCCn1c(NCc2cccnc2N)nc(=O)n(Cc2ccc(OC)cc2)c1=O [Cpd 78, 6-[(2-Amino-pyridin-3-ylmethyl)-amino]-3-(4-methoxy-benzyl)-1-(5-methoxy-pentyl)-1H-[1,3,5]triazine-2,4-dione]
- Ca^2+ Mobilization % Inh @ 10 μM: 95%
- inhibition at 10 µM: 94%
- IC50: 36 nM and 113 nM

SMILES: CCCCCCn1c(NCc2cccnc2N)nc(=O)n(Cc2ccc(OC)cc2)c1=O [Cpd 79]
- inhibition at 10 µM: 85%
- IC50: 679 nM

SMILES: COc1ccc(Cn2c(=O)nc(NCc3cccnc3N)n(Cc3cccc(OC)c3)c2=O)cc1 [Cpd 80]
- inhibition at 10 µM: 70%
- IC50: 2030 nM

SMILES: COc1ccc(Cn2c(=O)nc(NCc3cccnc3N)n(Cc3cccc(C#N)c3)c2=O)cc1 [Cpd 81]
- inhibition at 10 µM: 36%
- IC50: > 10000 nM

SMILES: COc1ccc(Cn2c(=O)nc(NCc3cccnc3N)n(Cc3cccc([N+](=O)[O-])c3)c2=O)cc1 [Cpd 82]
- inhibition at 10 µM: 38%
- IC50: > 10000 nM

SMILES: COc1ccc(Cn2c(NCc3cnc(C)cc3C)nc(=O)n(Cc3ccc(OC(F)F)cc3)c2=O)cc1 [Cpd 83]
- inhibition at 10 µM: 82%
- IC50: 668 nM

SMILES: COc1ccc(Cn2c(NCc3cccnc3N)nc(=O)n(Cc3ccc(OC(F)F)cc3)c2=O)cc1 [Cpd 84]
- inhibition at 10 µM: 70%
- IC50: 1220 nM

SMILES: CCc1ccccc1Cn1c(NCc2cccnc2N)nc(=O)n(Cc2ccc(OC)cc2)c1=O [Cpd 86]
- inhibition at 10 µM: 31%
- IC50: > 10000 nM

SMILES: COc1ccc(Cn2c(=O)nc(NCc3cccnc3N)n(Cc3ccccc3OC(F)(F)F)c2=O)cc1 [Cpd 87]
- inhibition at 10 µM: 53%
- IC50: > 10000 nM

SMILES: COc1ccc(Cn2c(=O)nc(NCc3cccnc3N)n(Cc3ccccc3C#N)c2=O)cc1 [Cpd 88]
- inhibition at 10 µM: 41%
- IC50: > 10000 nM

SMILES: COc1ccc(Cn2c(NCc3cccnc3N)nc(=O)n(Cc3ccc(I)cc3)c2=O)cc1 [Cpd 89]
- inhibition at 10 µM: 82%
- IC50: 817 nM

SMILES: COc1ccc(Cn2c(NCc3cccnc3N)nc(=O)n(Cc3ccc(-n4cccn4)cc3)c2=O)cc1 [Cpd 90]
- inhibition at 10 µM: 71%
- IC50: 2330 nM

SMILES: Nc1ncccc1CNc1nc(=O)n(Cc2ccc(F)cc2)c(=O)n1Cc1ccc(OC(F)(F)F)cc1 [Cpd 91]
- inhibition at 10 µM: 59%
- IC50: 3980 nM

SMILES: COc1ccc(Cn2c(=O)nc(NCc3cccnc3N)n(Cc3ccccc3OC)c2=O)cc1 [Cpd 92]
- inhibition at 10 µM: 58%
- IC50: 5160 nM

SMILES: COC(=O)c1cccc(Cn2c(NCc3cccnc3N)nc(=O)n(Cc3ccc(OC)cc3)c2=O)c1 [Cpd 93]
- inhibition at 10 µM: 96%
- IC50: 116 nM

SMILES: COc1ccc(CCn2c(NCc3cccnc3N)nc(=O)n(Cc3ccc(OC)cc3)c2=O)cc1 [Cpd 94]
- inhibition at 10 µM: 91%
- IC50: 373 nM

SMILES: COc1ccc(Cn2c(=O)nc(NCc3cccnc3N)n(Cc3ccc(OC)nc3)c2=O)cc1 [Cpd 95]
- inhibition at 10 µM: 92%
- IC50: 84 nM

SMILES: COc1ccc(Cn2c(=O)nc(NCc3cnc(C)cc3C)n(Cc3ccc(OC(F)F)cc3)c2=O)cc1 [Cpd 96]
- IC50: 273 nM

SMILES: COc1ccc(Cn2c(NCc3c(C)cc(C)nc3N)nc(=O)n(Cc3ccc(OC)cc3)c2=O)cc1 [Cpd 97, 6-[(2-Amino-4,6-dimethyl-pyridin-3-ylmethyl)-amino]-1,3-bis-(4-methoxy-benzyl)-1H-[1,3,5]triazine-2,4-dione]
- Ca^2+ Mobilization % Inh @ 10 μM: 96% and 98%
- inhibition at 10 µM: 90%
- IC50: 6 nM and 7 nM and 19 nM

SMILES: COc1ccc(Cn2c(=O)nc(NCc3cccnc3N)n(Cc3cccc(OC(F)(F)F)c3)c2=O)cc1 [Cpd 98]
- inhibition at 10 µM: 77%
- IC50: 736 nM

SMILES: COc1ccc(Cn2c(=O)nc(NCc3cnc(C)cc3C)n(Cc3cccc(OC(F)(F)F)c3)c2=O)cc1 [Cpd 99]
- inhibition at 10 µM: 91%
- IC50: 100 nM

SMILES: COc1ccc(Cn2c(=O)nc(NCc3cnc(C)cc3C)n(Cc3ccc(SC)cc3)c2=O)cc1 [Cpd 100]
- inhibition at 10 µM: 62%
- IC50: 533 nM

SMILES: COc1ccc(Cn2c(=O)nc(NCc3cnc(C)cc3C)n(Cc3ccncc3)c2=O)cc1 [Cpd 101]
- inhibition at 10 µM: 60%
- IC50: 3300 nM

SMILES: COc1ccc(Cn2c(=O)nc(NCc3cnc(C)cc3C)n(Cc3cc4ccccc4o3)c2=O)cc1 [Cpd 102]
- inhibition at 10 µM: 99%
- IC50: 110 nM

SMILES: CCCCCCn1c(NCc2cnc(C)cc2C)nc(=O)n(Cc2ccc(OC)cc2)c1=O [Cpd 103]
- inhibition at 10 µM: 41%
- IC50: > 10000 nM

SMILES: COc1ccc(Cn2c(=O)nc(NCc3cnc(C)cc3C)n(Cc3ccc(OC)nc3)c2=O)cc1 [Cpd 104]
- inhibition at 10 µM: 96%
- IC50: 193 nM

SMILES: COc1ccc(Cn2c(=O)nc(NCc3cnc(C)cc3C)n(Cc3ccccc3OC(F)(F)F)c2=O)cc1 [Cpd 105]
- inhibition at 10 µM: 85%
- IC50: 437 nM

SMILES: CCOc1ccc(Cn2c(=O)nc(NCc3cnc(C)cc3C)n(Cc3ccc(OC)cc3)c2=O)cc1 [Cpd 107]
- inhibition at 10 µM: 89%
- IC50: 868 nM

SMILES: COc1ccc(Cn2c(NCc3cnc(C)cc3C)nc(=O)n(Cc3ccc([N+](=O)[O-])cc3)c2=O)cc1 [Cpd 108]
- inhibition at 10 µM: 42%
- IC50: > 10000 nM

SMILES: C=CCC(c1ccc(OC)cc1)n1c(=O)nc(NCc2cnc(C)cc2C)n(Cc2ccc(OC)cc2)c1=O (stereo not shown) [Cpd 109]
- inhibition at 10 µM: 89%
- IC50: 681 nM

SMILES: COc1ccc(Cn2c(NCc3cnc(C)cc3C)nc(=O)n(Cc3ccc(C(F)(F)F)cc3)c2=O)cc1 [Cpd 110]
- inhibition at 10 µM: 48%
- IC50: 9070 nM

SMILES: COc1ccc(Cn2c(NCc3cnc(C)cc3C)nc(=O)n(Cc3cccc(OC)c3)c2=O)cc1 [Cpd 111]
- inhibition at 10 µM: 57%
- IC50: 7880 nM

SMILES: COc1ccc(Cn2c(NCc3cnc(C)cc3C)nc(=O)n(Cc3cccc(F)c3)c2=O)cc1 [Cpd 112]
- inhibition at 10 µM: 74%
- IC50: 2550 nM

SMILES: COC(=O)c1ccc(Cn2c(=O)nc(NCc3cnc(C)cc3C)n(Cc3ccc(OC)cc3)c2=O)cc1 [Cpd 114]
- inhibition at 10 µM: 48%
- IC50: 6310 nM

SMILES: COc1ccc(Cn2c(NCc3cccc(N)n3)nc(=O)n(Cc3ccc(OC)cc3)c2=O)cc1 [Cpd 115, 6-[(6-Amino-pyridin-2-ylmethyl)-amino]-1,3-bis-(4-methoxy-benzyl)-1H-[1,3,5]triazine-2,4-dione]
- inhibition at 10 µM: 98%
- IC50: 244 nM

SMILES: COc1ccc(Cn2c(=O)nc(NCc3cnc(C)cc3C)n(Cc3ccc(F)cc3)c2=O)cc1 [Cpd 116]
- inhibition at 10 µM: 95%
- IC50: 391 nM

SMILES: COc1ccc(Cn2c(=O)nc(NCc3cnc(C)cc3C)n(Cc3ccc(Cl)cc3)c2=O)cc1 [Cpd 117]
- inhibition at 10 µM: 97%
- IC50: 218 nM

SMILES: COc1ccc(Cn2c(NCc3c[n+]([O-])c(C)cc3C)nc(=O)n(Cc3ccc(OC)cc3)c2=O)cc1 [Cpd 118]
- inhibition at 10 µM: 80%
- IC50: 1370 nM

SMILES: COc1ccc(Cn2c(NCc3cccnc3N)nc(=O)n(CCc3c[nH]c4ccccc34)c2=O)cc1 [Cpd 119]
- inhibition at 10 µM: 40%
- IC50: > 10000 nM

SMILES: COc1ccc(Cn2c(NCc3cccnc3N)nc(=O)n(CC3COc4ccccc4O3)c2=O)cc1 (stereo not shown) [Cpd 120]
- inhibition at 10 µM: 40%
- IC50: > 10000 nM

SMILES: COc1ccc(Cn2c(OCc3cccnc3)cc(=O)n(Cc3ccc(OC)cc3)c2=O)cc1 [Cpd 121, 1,3-Bis-(4-methoxy-benzyl)-6-(pyridin-3-ylmethoxy)-1H-pyrimidine-2,4-dione]
- inhibition at 10 µM: 58%
- IC50: 6330 nM

SMILES: COc1ccc(Cn2c(NCc3ccc(C(F)(F)F)nc3)nc(=O)n(Cc3ccc(OC)cc3)c2=O)cc1 [Cpd 122]
- inhibition at 10 µM: 76%
- IC50: 194 nM

SMILES: COc1ccc(Cn2c(NCc3cnc(C)cc3C)nc(=O)n(Cc3ccc4c(c3)CCO4)c2=O)cc1 [Cpd 123, 3-(2,3-Dihydro-benzofuran-5-ylmethyl)-6-[(4,6-dimethyl-pyridin-3-ylmethyl)-amino]-1-(4-methoxy-benzyl)-1H-[1,3,5]triazine-2,4-dione]
- inhibition at 10 µM: 83%
- IC50: 684 nM

SMILES: COc1ccc(Cn2c(NCc3cccnc3N)nc(=O)n(Cc3ccc(OC)c([N+](=O)[O-])c3)c2=O)cc1 [Cpd 124]
- inhibition at 10 µM: 61%
- IC50: 815 nM

SMILES: COc1ccc(Cn2c(=O)nc(NCc3cccnc3N)n(Cc3ccc4c(c3)CCO4)c2=O)cc1 [Cpd 125]
- Ca^2+ Mobilization % Inh @ 10 μM: 99%
- inhibition at 10 µM: 97%
- IC50: 54 nM and 14 nM
